Experimental data taken from PubChem BioAssay (NCI).
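Cells were grown in 96-well plates and exposed to each compound for 48 hours at five concentrations; endpoints were interpolated linearly between bracketing concentrations, or set to the highest concentration if not reached. The concentration for full growth arrest is given as TGI.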

Experiments:
Assay in all cases: NCI-60 cell line screen, 48 h
786-0 renal = system: 786-0 renal
A498 renal = system: A498 renal
COLO 205 colon = system: COLO 205 colon
HCT-15 colon = system: HCT-15 colon
LOX IMVI melanoma = system: LOX IMVI melanoma
NCI-H460 lung = system: NCI-H460 lung
OVCAR-5 ovarian = system: OVCAR-5 ovarian
OVCAR-8 ovarian = system: OVCAR-8 ovarian
SF-268 CNS = system: SF-268 CNS
SK-MEL-28 melanoma = system: SK-MEL-28 melanoma
SK-OV-3 ovarian = system: SK-OV-3 ovarian
SNB-75 CNS = system: SNB-75 CNS
SR leukemia = system: SR leukemia
SW-620 colon = system: SW-620 colon
UACC-257 melanoma = system: UACC-257 melanoma
UACC-62 melanoma = system: UACC-62 melanoma
DU-145 prostate = system: DU-145 prostate
MDA-MB-231 breast = system: MDA-MB-231 breast
MDA-MB-435 = system: MDA-MB-435
NCI/ADR-RES ovarian = system: NCI/ADR-RES ovarian

| Compound | TGI (786-0 renal) | TGI (A498 renal) | TGI (COLO 205 colon) | TGI (HCT-15 colon) | TGI (LOX IMVI melanoma) | TGI (NCI-H460 lung) | TGI (OVCAR-5 ovarian) | TGI (OVCAR-8 ovarian) | TGI (SF-268 CNS) | TGI (SK-MEL-28 melanoma) | TGI (SK-OV-3 ovarian) | TGI (SNB-75 CNS) | TGI (SR leukemia) | TGI (SW-620 colon) | TGI (UACC-257 melanoma) | TGI (UACC-62 melanoma) | TGI (DU-145 prostate) | TGI (MDA-MB-231 breast) | TGI (MDA-MB-435) | TGI (NCI/ADR-RES ovarian) |
| --- | --- | --- | --- | --- | --- | --- | --- | --- | --- | --- | --- | --- | --- | --- | --- | --- | --- | --- | --- | --- |
| CCc1cccc(CC)c1NC(=O)C1=C(C)NC(C)=C(C(=O)Nc2c(CC)cccc2CC)C1c1ccc2c(c1)OCO2 | 29.9 µM | 38.9 µM | 26.2 µM | 26.8 µM | 26 µM | 28.6 µM | 31.7 µM | 34.7 µM | 35.9 µM | 35 µM | 60.6 µM | 38.1 µM | 65 µM | 31.5 µM | 35.1 µM | 25.6 µM | – | – | – | – |
| CCOC(=O)C1=COC(C)(c2ccccc2)CC1=O (stereo unspecified) | > 100 µM | > 100 µM | > 100 µM | > 100 µM | – | > 100 µM | > 100 µM | > 100 µM | > 100 µM | > 100 µM | > 100 µM | > 100 µM | – | > 100 µM | > 100 µM | > 100 µM | > 100 µM | > 100 µM | > 100 µM | > 100 µM |
| NC(=S)N/N=c1\cc(C(=O)Nc2ccc([N+](=O)[O-])cc2[N+](=O)[O-])oc2ccccc12 | > 100 µM | – | > 100 µM | > 100 µM | > 100 µM | > 100 µM | > 100 µM | > 100 µM | > 100 µM | > 100 µM | > 100 µM | > 100 µM | – | > 100 µM | > 100 µM | > 100 µM | > 100 µM | > 100 µM | > 100 µM | > 100 µM |
| CC(C)(CC#N)c1cc(CC(C)(C)c2cc(CC(C)(C)c3cc(C(C)(C)C4(C)OCCO4)no3)no2)no1 | 43.1 µM | > 100 µM | > 100 µM | > 100 µM | – | – | > 100 µM | > 100 µM | > 100 µM | > 100 µM | > 100 µM | 43.5 µM | – | > 100 µM | > 100 µM | > 100 µM | > 100 µM | 99.7 µM | > 100 µM | > 100 µM |
| CCCCNC(=O)CCN(C(=O)O)S(=O)(=O)c1ccc(NC(=O)c2ccccc2)cc1 | 29.7 µM | > 100 µM | > 100 µM | > 100 µM | 34.6 µM | > 100 µM | > 100 µM | > 100 µM | > 100 µM | > 100 µM | > 100 µM | > 100 µM | > 100 µM | 29.2 µM | > 100 µM | > 100 µM | – | – | – | – |
| Cc1n[nH]c(=O)n1/N=C/c1ccncc1 | > 100 µM | > 100 µM | > 100 µM | > 100 µM | > 100 µM | > 100 µM | > 100 µM | > 100 µM | > 100 µM | > 100 µM | > 100 µM | > 100 µM | – | > 100 µM | > 100 µM | > 100 µM | > 100 µM | > 100 µM | > 100 µM | > 100 µM |
| CCO/C(O)=C(/C(=N)N1CCCC1)C(=O)Nc1ccc(F)cc1 | > 100 µM | > 100 µM | > 100 µM | > 100 µM | > 100 µM | > 100 µM | > 100 µM | > 100 µM | > 100 µM | > 100 µM | > 100 µM | > 100 µM | – | > 100 µM | > 100 µM | > 100 µM | > 100 µM | > 100 µM | > 100 µM | > 100 µM |
| CCN(CC)Cc1cc(Nc2c3ccccc3nc3c4ccccc4n(C)c23)ccc1O | 14 µM | 27.8 µM | 17.1 µM | 22.8 µM | 9.1 µM | 24.5 µM | 21.9 µM | 15.6 µM | 52.4 µM | 15.3 µM | 31.6 µM | 27.3 µM | – | 18.6 µM | 23.3 µM | 17.2 µM | – | – | – | – |
| O=c1oc2ccccc2c(O)c1C(c1ccc2c(c1)Cc1ccccc1-2)c1c(O)c2ccccc2oc1=O | 66.9 µM | > 100 µM | 37.2 µM | 57.2 µM | 66.7 µM | 62.4 µM | 66.1 µM | > 100 µM | 68.4 µM | 57.6 µM | 90.8 µM | > 100 µM | – | 90.9 µM | > 100 µM | 49.8 µM | > 100 µM | 57.9 µM | 77.4 µM | > 100 µM |
| CC(/C=N\NC(=S)N(C)C)=N/NC(=S)N(C)C | > 59.8 µM | 20.1 µM | 33.7 µM | > 54.3 µM | > 100 µM | > 100 µM | > 100 µM | > 100 µM | > 29.3 µM | > 100 µM | > 51.9 µM | > 100 µM | – | > 100 µM | > 100 µM | > 100 µM | > 100 µM | > 100 µM | > 100 µM | – |
| CC1(C)CCC[C@]2(C)[C@@H]1CC[C@@]13O[C@@H]1C1=C(CO)C(=O)OC1=C[C@@H]23 | 27.3 µM | 76.8 µM | 30.6 µM | 63.7 µM | – | 67.4 µM | 23.2 µM | – | 54.7 µM | 31.7 µM | 46.5 µM | 88.4 µM | – | 37.5 µM | 71.2 µM | 40.7 µM | 39.7 µM | 81.9 µM | 61.5 µM | 37.7 µM |
| COc1ccc(N2C(=O)[C@@H]3[C@H](C2=O)c2[nH]c4ccccc4c2C2CCC(C(C)(C)C)C[C@@H]23)cc1 (stereo partly specified) | 31.1 µM | 64 µM | > 84.2 µM | > 100 µM | > 58.6 µM | > 100 µM | > 100 µM | 42.2 µM | > 100 µM | > 100 µM | 44.2 µM | 38 µM | – | > 100 µM | > 100 µM | 49.4 µM | – | – | – | – |
| COC(=O)NC(=O)c1cn(CCCOC(=O)CCCCCCCCC(=O)OCCCn2cc(C(=O)NC(=O)OC)c(=O)[nH]c2=O)c(=O)[nH]c1=O | > 100 µM | > 100 µM | – | > 100 µM | > 100 µM | > 100 µM | > 100 µM | > 100 µM | > 100 µM | > 100 µM | – | 50.1 µM | > 100 µM | > 100 µM | > 100 µM | > 100 µM | – | – | – | – |
